{
  "source": "patent US9695155B2",
  "about": "“Herbicidal substituted pyrimidinyloxy benzene compounds” (E. I. DU PONT DE NEMOURS AND COMPANY, priority 2013, dated 2017)",
  "key": {"[1]": {"system": "yellow nutsedge", "assay": "Test C postemergence", "assay_type": "in vivo, Cyperus esculentus", "procedure,_shortened": "(§1)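 Seeds are planted in blended loam soil and sand and treated preemergence, while seedlings in a peat moss/vermiculite medium receive postemergence sprays at 2 to 18 cm height. All plants stay in the greenhouse for 13 to 15 days before visual comparison with controls on a 0–100 scale.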"}, "[2]": {"system": "chickweed", "assay": "Test C postemergence", "assay_type": "in vivo, Stellaria media", "procedure,_shortened": "as §1"}, "[3]": {"system": "blackgrass", "assay": "Test C postemergence", "assay_type": "in vivo, Alopecurus myosuroides", "procedure,_shortened": "as §1"}, "[4]": {"system": "Italian ryegrass", "assay": "Test C postemergence", "assay_type": "in vivo, Lolium multiflorum", "procedure,_shortened": "as §1"}, "[5]": {"system": "johnsongrass", "assay": "Test C postemergence", "assay_type": "in vivo, Sorghum halepense", "procedure,_shortened": "as §1"}, "[6]": {"system": "corn", "assay": "Test C postemergence", "assay_type": "in vivo, Zea mays", "procedure,_shortened": "as §1"}, "[7]": {"system": "giant foxtail", "assay": "Test C postemergence", "assay_type": "in vivo, Setaria faberii", "procedure,_shortened": "as §1"}, "[8]": {"system": "large (Lg) crabgrass", "assay": "Test C postemergence", "assay_type": "in vivo, Digitaria sanguinalis", "procedure,_shortened": "as §1"}, "[9]": {"system": "wild oat", "assay": "Test C postemergence", "assay_type": "in vivo, Avena fatua", "procedure,_shortened": "as §1"}, "[10]": {"system": "giant foxtail", "assay": "Test A preemergence", "assay_type": "in vivo, Setaria faberii", "procedure,_shortened": "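Pre- and postemergence greenhouse screen. Soil: loam + sand. Spray carrier: solvent mixture, non-phytotoxic, with surfactant. Post timing at 1–2 leaves, height 2–10 cm. Readout: visual injury on a 0–100 scale roughly 10 days after application, untreated plants as reference.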"}, "[11]": {"system": "waterhemp", "assay": "Test C postemergence", "assay_type": "in vivo, Amaranthus rudis", "procedure,_shortened": "as §1"}, "[12]": {"settings": "16 g ai/ha, postemergence, 0 is no effect, 100 is complete control"}, "[13]": {"settings": "31 g ai/ha, postemergence, visual rating, scale 0 to 100 (0 no effect, 100 complete control), 13 to 15 days"}, "[14]": {"settings": "125 g ai/ha, postemergence, visual rating, scale 0 to 100 (0 no effect, 100 complete control)"}, "[15]": {"settings": "Postemergence, 62 g ai/ha, scale 0 to 100 (0 no effect, 100 complete control), 13 to 15 days"}},
  "data": [
    {"molecule": "FC(F)Oc1cnn(-c2c(Cl)cccc2Oc2ncc(Cl)cn2)c1", "note": "[Compound 258]", "values": [
      {"measurement": "Plant response rating (0 to 100), Nutsedge, Yellow", "setting": "[1]; [12]", "value": 0},
      {"measurement": "Nutsedge, Yellow plant response rating", "setting": "[1]; [13]", "value": 0},
      {"measurement": "Plant response rating, Nutsedge, Yellow", "setting": "[1]; [14]", "value": 5},
      {"measurement": "Plant response rating, Nutsedge, Yellow", "setting": "[1]; [15]", "value": 5},
      {"measurement": "Plant response rating (0 to 100), Chickweed", "setting": "[2]; [12]", "value": 50},
      {"measurement": "Chickweed plant response rating", "setting": "[2]; [13]", "value": 50},
      {"measurement": "Plant response rating, Chickweed", "setting": "[2]; [14]", "value": 95},
      {"measurement": "Plant response rating, Chickweed", "setting": "[2]; [15]", "value": 90},
      {"measurement": "Plant response rating (0 to 100), Blackgrass", "setting": "[3]; [12]", "value": 0},
      {"measurement": "Blackgrass plant response rating", "setting": "[3]; [13]", "value": 5},
      {"measurement": "Plant response rating, Blackgrass", "setting": "[3]; [14]", "value": 10},
      {"measurement": "Plant response rating, Blackgrass", "setting": "[3]; [15]", "value": 5},
      {"measurement": "Plant response rating (0 to 100), Ryegrass, Italian", "setting": "[4]; [12]", "value": 0},
      {"measurement": "Ryegrass, Italian plant response rating", "setting": "[4]; [13]", "value": 0},
      {"measurement": "Plant response rating, Ryegrass, Italian", "setting": "[4]; [14]", "value": 30},
      {"measurement": "Plant response rating, Ryegrass, Italian", "setting": "[4]; [15]", "value": 0},
      {"measurement": "Plant response rating (0 to 100), Johnsongrass", "setting": "[5]; [12]", "value": 0},
      {"measurement": "Johnsongrass plant response rating", "setting": "[5]; [13]", "value": 5},
      {"measurement": "Plant response rating, Johnsongrass", "setting": "[5]; [14]", "value": 5},
      {"measurement": "Plant response rating, Johnsongrass", "setting": "[5]; [15]", "value": 5},
      {"measurement": "Plant response rating (0 to 100), Corn", "setting": "[6]; [12]", "value": 5},
      {"measurement": "Corn plant response rating", "setting": "[6]; [13]", "value": 5},
      {"measurement": "Plant response rating, Corn", "setting": "[6]; [14]", "value": 20},
      {"measurement": "Plant response rating, Corn", "setting": "[6]; [15]", "value": 10},
      {"measurement": "Plant response rating (0 to 100), Foxtail, Giant", "setting": "[7]; [12]", "value": 5},
      {"measurement": "Foxtail, Giant plant response rating", "setting": "[7]; [13]", "value": 20},
      {"measurement": "Plant response rating, Foxtail, Giant", "setting": "[7]; [14]", "value": 45},
      {"measurement": "Plant response rating, Foxtail, Giant", "setting": "[7]; [15]", "value": 25},
      {"measurement": "Plant response rating (0 to 100), Crabgrass, Large", "setting": "[8]; [12]", "value": 5},
      {"measurement": "Crabgrass, Large plant response rating", "setting": "[8]; [13]", "value": 5},
      {"measurement": "Plant response rating, Crabgrass, Large", "setting": "[8]; [14]", "value": 15},
      {"measurement": "Plant response rating, Crabgrass, Large", "setting": "[8]; [15]", "value": 10},
      {"measurement": "Plant response rating (0 to 100), Oat, Wild", "setting": "[9]; [12]", "value": 5},
      {"measurement": "Oat, Wild plant response rating", "setting": "[9]; [13]", "value": 5},
      {"measurement": "Plant response rating, Oat, Wild", "setting": "[9]; [14]", "value": 15},
      {"measurement": "Plant response rating, Oat, Wild", "setting": "[9]; [15]", "value": 10},
      {"measurement": "Plant response rating, Foxtail, Giant", "setting": "[10]; 31 g ai/ha, 0 to 100 scale where 0 is no effect and 100 is complete control, visual, approximately 10 days", "value": 60},
      {"measurement": "Foxtail, Giant plant response rating (0 to 100 scale)", "setting": "[10]; 125 g ai/ha", "value": 100},
      {"measurement": "Plant response rating (0 to 100), Waterhemp", "setting": "[11]; [12]", "value": 65},
      {"measurement": "Waterhemp plant response rating", "setting": "[11]; [13]", "value": 70},
      {"measurement": "Plant response rating, Waterhemp", "setting": "[11]; [14]", "value": 90},
      {"measurement": "Plant response rating, Waterhemp", "setting": "[11]; [15]", "value": 80}
    ]}
  ]
}
